Key:
[1] = Cytotoxicity against human 6647 cells measured after 72 hrs by MTT assay; type: functional, cell-based; conditions: Homo sapiens, 6647, 72 h
[2] = molecular target: 3',5'-cyclic-AMP phosphodiesterase 4C (Homo sapiens) (UniProt Q08493); assay: Inhibition of PDE4C1 (unknown origin) at 10 uM incubated for 60 mins followed by addition of binding agent and measured after 20 mins by Fluorescence Polarization assay relative to control; conditions: time 80.0 min
[3] = molecular target: T1, NAD-dependent protein deacetylase sirtuin-7 (Homo sapiens) (UniProt Q9NRC8); assay: Inhibition of human recombinant SIRT7 at 10 uM incubated for 20 mins followed by mixing and measure after 30 mins by Luminescence assay relative to control; conditions: time 50.0 min
T1 sequence (whole entry): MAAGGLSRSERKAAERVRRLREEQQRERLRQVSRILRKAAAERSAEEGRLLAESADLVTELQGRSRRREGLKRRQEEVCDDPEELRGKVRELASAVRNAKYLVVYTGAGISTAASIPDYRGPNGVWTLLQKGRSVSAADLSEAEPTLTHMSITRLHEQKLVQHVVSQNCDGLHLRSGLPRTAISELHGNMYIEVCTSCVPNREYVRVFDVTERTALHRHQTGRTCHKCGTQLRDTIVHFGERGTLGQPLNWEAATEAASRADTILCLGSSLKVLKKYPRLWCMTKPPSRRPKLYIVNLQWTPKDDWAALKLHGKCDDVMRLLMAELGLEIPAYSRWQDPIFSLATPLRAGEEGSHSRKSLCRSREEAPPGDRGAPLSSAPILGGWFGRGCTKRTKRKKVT

Rec1 = assay: Cytotoxicity against human REC1 cells measured after 72 hrs by MTT assay; type: functional, cell-based; conditions: Rec1, 72 h
PC-3 = assay: Cytotoxicity against human PC-3 cells measured after 72 hrs by MTT assay; type: functional, cell-based; conditions: PC-3, 72 h
HCT-116 [4] = assay: Anticlonogenic activity against human HCT-116 cells assessed as reduction of cell survival at 0.5 to 20 uM measured after 10 days by SRB staining clonogenic survival assay; type: functional, cell-based; conditions: dose 0.5-20 µM, time 10.0 day
[5] = molecular target: T2, Protein deacetylase HDAC6 (Homo sapiens) (UniProt Q9UBN7); assay: Inhibition on human recombinant HDAC6 at 10 uM measured after 20 min by luminescence glo assay
T2 sequence (whole entry): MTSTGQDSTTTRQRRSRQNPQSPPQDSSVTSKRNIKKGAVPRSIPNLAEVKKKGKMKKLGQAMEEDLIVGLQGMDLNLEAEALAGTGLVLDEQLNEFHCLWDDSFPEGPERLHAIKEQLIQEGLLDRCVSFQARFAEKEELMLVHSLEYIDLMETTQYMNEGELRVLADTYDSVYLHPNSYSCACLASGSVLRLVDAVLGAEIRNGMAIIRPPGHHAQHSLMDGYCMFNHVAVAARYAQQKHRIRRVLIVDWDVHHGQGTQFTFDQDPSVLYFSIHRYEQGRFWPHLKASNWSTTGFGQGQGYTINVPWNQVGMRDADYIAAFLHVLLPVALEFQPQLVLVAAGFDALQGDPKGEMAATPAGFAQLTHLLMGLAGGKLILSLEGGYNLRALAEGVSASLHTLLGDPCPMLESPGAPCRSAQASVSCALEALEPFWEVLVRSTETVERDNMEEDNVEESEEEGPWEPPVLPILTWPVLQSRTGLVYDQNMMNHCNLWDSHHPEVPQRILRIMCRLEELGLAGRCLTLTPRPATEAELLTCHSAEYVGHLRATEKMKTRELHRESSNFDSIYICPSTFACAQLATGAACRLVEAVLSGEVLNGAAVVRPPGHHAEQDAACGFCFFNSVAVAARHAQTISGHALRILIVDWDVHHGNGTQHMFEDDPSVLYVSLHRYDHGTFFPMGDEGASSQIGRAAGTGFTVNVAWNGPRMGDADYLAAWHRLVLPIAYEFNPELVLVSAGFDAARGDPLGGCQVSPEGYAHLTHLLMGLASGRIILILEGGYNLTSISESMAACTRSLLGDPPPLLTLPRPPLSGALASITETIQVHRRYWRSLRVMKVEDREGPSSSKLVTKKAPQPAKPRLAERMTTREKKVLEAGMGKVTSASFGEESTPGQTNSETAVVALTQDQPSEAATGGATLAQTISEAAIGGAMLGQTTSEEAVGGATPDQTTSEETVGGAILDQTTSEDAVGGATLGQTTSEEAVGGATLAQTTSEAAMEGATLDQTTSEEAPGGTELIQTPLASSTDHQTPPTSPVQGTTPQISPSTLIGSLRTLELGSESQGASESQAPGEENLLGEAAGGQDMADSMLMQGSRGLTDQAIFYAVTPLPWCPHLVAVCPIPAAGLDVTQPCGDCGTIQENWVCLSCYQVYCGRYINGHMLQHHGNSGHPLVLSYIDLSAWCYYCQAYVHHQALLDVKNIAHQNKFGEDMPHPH

NCI-H69 = assay: Cytotoxicity against human NCI-H69 cells measured after 72 hrs by MTT assay; type: functional, cell-based; conditions: NCI-H69, 72 h
[6] = molecular target: {'v': 'hERG (KCNH2)', 'o': 'p', 'q': 'Inhibition of human ERG at 10 uM'} (Homo sapiens, UniProt Q12809); assay: Inhibition of human ERG at 10 uM relative to control
786-0 = assay: Cytotoxicity against human 786-0 cells measured after 72 hrs by MTT assay; type: functional, cell-based; conditions: 786-0, 72 h
TC-71 [7] = assay: Anticlonogenic activity against human TC71 cells assessed as reduction of cell survival at 0.5 to 20 uM measured after 10 days by SRB staining clonogenic survival assay; type: functional, cell-based; conditions: dose 0.5-20 µM, time 10.0 day
SK-N-MC [8] = assay: Cytotoxicity against human SK-N-MC cells measured after 72 hrs by MTT assay; type: functional, cell-based
NCI-H82 = assay: Cytotoxicity against human NCI-H82 cells measured after 72 hrs by MTT assay; type: functional, cell-based; conditions: NCI-H82, 72 h
HEK293 = assay: Cytotoxicity against HEK293 cells at 10 uM measured after 24 to 48 hrs by Cell-titer glo assay relative to control; type: cell-based; conditions: human, hek293, 10 µM, time 24-48 hrs
A673 = assay: Cytotoxicity against human A673 cells measured after 72 hrs by MTT assay; type: functional, cell-based; conditions: A673, 72 h
TC-32 [9] = assay: Cytotoxicity against human TC-32 cells measured after 72 hrs by MTT assay; type: functional, cell-based; conditions: TC-32, 72 h
[10] = molecular target: Histone deacetylase 9 (Homo sapiens) (UniProt Q9UKV0); assay: Inhibition on human recombinant HDAC9 at 10 uM measured after 20 min by luminescence glo assay
SK-N-MC [11] = assay: Cytotoxicity against human SK-N-MC cells at 30 uM assessed as cell proliferation rate measured after 72 hrs by MTT assay relative to control; type: functional
[12] = molecular target: Aurora kinase B (Homo sapiens) (UniProt Q96GD4); assay: Inhibition of Aurora B kinase (unknown origin) at 10 uM in presence of ATP incubated for 30 min followed by addition of kinase glo-reagent measured after 20 mins by Luminescence based plate reader assay relative to control; conditions: time 50.0 min
IGROV-1 = assay: Cytotoxicity against human IGROV-1 cells measured after 72 hrs by MTT assay; type: functional, cell-based; conditions: IGROV-1, 72 h
CAKI-1 = assay: Cytotoxicity against human CAKI-1 cells measured after 72 hrs by MTT assay; type: functional, cell-based; conditions: CAKI-1, 72 h
[13] = Cytotoxicity against hTERT cells at 10 uM measured after 24 to 48 hrs by Cell-titer glo assay relative to control; type: cell-based; conditions: human, time 24-48 hrs
HCT-116 [14] = assay: Cytotoxicity against human HCT-116 cells measured after 72 hrs by MTT assay; type: functional, cell-based; conditions: HCT-116, 72 h
[15] = Cytotoxicity against human TC71 cells measured after 72 hrs by MTT assay; type: functional, cell-based; conditions: TC-71, 72 h
[16] = molecular target: Histone deacetylase 4 (Homo sapiens) (UniProt P56524); assay: Inhibition on human recombinant HDAC4 at 10 uM measured after 20 min by luminescence glo assay
MCF7 = assay: Cytotoxicity against human MCF7 cells measured after 72 hrs by MTT assay; type: functional, cell-based; conditions: MCF7, 72 h
[17] = molecular target: T3, Histone deacetylase 8 (Homo sapiens) (UniProt Q9BY41); assay: Inhibition on human recombinant HDAC8 at 10 uM measured after 20 min by luminescence glo assay
T3 sequence (whole entry): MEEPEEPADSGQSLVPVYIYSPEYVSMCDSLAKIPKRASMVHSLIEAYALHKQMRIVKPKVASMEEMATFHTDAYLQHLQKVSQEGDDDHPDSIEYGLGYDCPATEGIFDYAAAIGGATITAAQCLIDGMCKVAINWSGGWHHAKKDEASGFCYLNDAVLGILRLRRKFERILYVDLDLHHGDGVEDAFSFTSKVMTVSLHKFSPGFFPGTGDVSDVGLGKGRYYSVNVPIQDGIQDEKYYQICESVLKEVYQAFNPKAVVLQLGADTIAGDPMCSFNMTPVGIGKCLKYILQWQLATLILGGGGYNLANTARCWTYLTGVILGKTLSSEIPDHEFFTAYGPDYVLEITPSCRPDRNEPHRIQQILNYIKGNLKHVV

6647 = assay: Cytotoxicity against human 6647 cells at 30 uM assessed as cell proliferation rate measured after 72 hrs by MTT assay relative to control; type: functional
HCT-116 [18] = assay: Cytotoxicity against human HCT-116 cells at 30 uM assessed as cell proliferation rate measured after 72 hrs by MTT assay relative to control; type: functional
TC-32 [19] = assay: Cytotoxicity against human TC-32 cells at 30 uM assessed as cell proliferation rate measured after 72 hrs by MTT assay relative to control; type: functional
TC-71 [20] = assay: Cytotoxicity against human TC71 cells at 30 uM assessed as cell proliferation rate measured after 72 hrs by MTT assay relative to control; type: functional

Sequence of 3',5'-cyclic-AMP phosphodiesterase 4C (Homo sapiens) (Q08493 whole entry): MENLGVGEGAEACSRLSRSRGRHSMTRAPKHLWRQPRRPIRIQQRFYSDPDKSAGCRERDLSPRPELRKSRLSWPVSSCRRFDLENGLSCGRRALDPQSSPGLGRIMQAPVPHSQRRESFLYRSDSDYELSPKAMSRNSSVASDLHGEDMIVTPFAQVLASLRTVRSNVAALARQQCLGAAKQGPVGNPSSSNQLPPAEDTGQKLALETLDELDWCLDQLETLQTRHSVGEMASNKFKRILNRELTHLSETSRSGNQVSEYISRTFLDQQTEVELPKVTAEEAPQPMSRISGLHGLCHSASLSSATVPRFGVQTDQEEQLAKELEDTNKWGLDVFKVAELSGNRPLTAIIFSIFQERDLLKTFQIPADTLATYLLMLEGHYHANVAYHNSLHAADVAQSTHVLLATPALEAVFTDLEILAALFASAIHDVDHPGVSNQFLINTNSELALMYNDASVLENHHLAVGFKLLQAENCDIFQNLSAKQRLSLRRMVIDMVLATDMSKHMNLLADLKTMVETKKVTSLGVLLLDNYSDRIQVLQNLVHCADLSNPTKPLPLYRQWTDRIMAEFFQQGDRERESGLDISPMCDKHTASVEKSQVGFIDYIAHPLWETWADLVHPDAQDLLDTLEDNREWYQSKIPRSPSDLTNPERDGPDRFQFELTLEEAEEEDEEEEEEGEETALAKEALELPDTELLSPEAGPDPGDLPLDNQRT
Sequence of Aurora kinase B (Homo sapiens) (Q96GD4 whole entry): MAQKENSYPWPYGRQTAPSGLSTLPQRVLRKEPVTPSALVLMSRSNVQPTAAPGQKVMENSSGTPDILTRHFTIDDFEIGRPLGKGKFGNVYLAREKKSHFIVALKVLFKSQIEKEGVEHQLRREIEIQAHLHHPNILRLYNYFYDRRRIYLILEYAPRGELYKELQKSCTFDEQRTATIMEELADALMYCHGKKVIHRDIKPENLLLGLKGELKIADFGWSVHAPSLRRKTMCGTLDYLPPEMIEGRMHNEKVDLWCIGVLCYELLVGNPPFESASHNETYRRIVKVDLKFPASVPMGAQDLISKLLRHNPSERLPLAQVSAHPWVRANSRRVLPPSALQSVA
Sequence of Histone deacetylase 9 (Homo sapiens) (Q9UKV0 whole entry): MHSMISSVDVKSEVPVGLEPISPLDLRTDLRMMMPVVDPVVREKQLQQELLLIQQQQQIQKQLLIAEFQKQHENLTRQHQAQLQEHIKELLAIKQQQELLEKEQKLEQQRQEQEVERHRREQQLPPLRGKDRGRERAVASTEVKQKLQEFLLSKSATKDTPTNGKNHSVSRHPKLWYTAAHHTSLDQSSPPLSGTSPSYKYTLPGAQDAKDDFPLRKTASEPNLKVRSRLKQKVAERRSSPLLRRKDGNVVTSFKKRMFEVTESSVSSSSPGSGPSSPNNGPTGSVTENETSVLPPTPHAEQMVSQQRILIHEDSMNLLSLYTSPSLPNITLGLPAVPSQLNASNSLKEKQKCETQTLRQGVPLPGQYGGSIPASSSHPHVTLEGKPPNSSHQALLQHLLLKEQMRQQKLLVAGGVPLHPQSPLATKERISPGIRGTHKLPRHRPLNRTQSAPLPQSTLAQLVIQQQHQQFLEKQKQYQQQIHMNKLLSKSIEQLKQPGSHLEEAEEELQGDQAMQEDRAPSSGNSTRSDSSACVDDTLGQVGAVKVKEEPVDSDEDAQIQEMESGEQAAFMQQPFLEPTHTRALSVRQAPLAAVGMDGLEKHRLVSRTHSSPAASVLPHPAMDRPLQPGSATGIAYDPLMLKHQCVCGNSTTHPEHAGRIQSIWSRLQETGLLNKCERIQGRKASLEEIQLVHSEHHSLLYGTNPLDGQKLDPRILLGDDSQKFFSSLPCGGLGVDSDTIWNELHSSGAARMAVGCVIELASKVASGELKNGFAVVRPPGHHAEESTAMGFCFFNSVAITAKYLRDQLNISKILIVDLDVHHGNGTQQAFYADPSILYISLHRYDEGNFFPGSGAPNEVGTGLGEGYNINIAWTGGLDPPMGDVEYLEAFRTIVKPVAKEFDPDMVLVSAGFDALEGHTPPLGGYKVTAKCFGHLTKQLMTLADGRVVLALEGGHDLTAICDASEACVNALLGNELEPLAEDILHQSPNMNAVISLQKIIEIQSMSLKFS
Sequence of Histone deacetylase 4 (Homo sapiens) (P56524 whole entry): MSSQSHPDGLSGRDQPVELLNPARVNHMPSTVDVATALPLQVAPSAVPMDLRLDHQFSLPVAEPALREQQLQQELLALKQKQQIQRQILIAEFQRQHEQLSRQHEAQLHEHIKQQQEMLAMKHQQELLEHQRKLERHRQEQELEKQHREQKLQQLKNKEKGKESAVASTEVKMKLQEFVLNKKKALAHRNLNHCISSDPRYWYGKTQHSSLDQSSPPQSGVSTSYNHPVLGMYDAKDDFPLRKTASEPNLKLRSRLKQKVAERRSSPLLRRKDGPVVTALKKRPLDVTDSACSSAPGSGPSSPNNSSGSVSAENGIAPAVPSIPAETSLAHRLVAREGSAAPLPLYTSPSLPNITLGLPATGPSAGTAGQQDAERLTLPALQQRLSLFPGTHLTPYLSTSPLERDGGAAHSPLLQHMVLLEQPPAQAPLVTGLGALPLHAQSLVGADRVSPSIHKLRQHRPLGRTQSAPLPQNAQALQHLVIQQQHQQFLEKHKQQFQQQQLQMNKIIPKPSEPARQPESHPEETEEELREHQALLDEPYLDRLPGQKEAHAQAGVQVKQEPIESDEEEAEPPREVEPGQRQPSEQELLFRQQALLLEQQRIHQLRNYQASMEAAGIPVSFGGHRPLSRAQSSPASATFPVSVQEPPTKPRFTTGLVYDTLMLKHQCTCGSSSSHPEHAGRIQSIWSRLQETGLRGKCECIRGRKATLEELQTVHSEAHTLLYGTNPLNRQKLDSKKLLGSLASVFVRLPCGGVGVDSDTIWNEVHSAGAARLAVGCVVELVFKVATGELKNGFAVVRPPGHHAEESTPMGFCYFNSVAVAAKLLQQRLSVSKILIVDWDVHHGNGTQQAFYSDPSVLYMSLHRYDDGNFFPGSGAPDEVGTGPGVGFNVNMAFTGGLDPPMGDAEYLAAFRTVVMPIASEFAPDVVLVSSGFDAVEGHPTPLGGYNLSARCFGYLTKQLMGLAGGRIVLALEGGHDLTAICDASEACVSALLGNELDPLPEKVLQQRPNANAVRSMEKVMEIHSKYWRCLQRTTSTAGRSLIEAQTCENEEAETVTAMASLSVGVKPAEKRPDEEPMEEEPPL
Sequence of {'v': 'hERG (KCNH2)', 'o': 'p', 'q': 'Inhibition of human ERG at 10 uM'} (Q12809 whole entry): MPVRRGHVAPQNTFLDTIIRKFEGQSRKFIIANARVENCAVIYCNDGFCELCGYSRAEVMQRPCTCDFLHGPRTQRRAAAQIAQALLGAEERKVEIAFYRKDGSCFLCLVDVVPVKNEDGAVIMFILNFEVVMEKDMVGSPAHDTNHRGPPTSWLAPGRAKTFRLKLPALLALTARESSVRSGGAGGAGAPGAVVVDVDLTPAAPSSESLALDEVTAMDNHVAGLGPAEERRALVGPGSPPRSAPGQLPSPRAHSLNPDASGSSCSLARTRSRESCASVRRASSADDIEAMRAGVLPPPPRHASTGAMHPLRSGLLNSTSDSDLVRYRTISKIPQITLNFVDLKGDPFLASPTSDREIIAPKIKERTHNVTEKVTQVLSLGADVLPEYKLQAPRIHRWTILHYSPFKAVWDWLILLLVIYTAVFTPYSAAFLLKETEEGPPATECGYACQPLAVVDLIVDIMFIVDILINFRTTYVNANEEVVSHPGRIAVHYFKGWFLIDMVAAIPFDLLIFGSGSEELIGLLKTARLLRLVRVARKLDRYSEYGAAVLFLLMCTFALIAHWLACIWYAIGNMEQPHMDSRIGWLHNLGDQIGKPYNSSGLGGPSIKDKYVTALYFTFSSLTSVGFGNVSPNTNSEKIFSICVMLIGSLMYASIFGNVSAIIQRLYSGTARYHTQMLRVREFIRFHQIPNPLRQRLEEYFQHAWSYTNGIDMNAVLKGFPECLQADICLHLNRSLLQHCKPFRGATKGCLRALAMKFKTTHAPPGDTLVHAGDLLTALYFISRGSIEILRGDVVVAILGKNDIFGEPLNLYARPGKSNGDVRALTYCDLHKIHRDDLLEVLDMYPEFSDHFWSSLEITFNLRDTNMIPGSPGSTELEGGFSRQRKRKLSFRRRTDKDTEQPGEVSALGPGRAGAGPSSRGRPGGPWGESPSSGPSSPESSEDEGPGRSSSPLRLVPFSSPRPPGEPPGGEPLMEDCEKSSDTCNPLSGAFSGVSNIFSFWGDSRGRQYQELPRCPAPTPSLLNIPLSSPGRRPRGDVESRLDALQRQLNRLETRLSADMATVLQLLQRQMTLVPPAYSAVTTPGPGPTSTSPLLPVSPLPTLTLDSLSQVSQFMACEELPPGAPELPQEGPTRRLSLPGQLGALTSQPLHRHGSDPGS

| SMILES | IC50 [1] | IC50 (Rec1) | IC50 (PC-3) | IC50 (NCI-H69) | IC50 (786-0) | IC50 (SK-N-MC [8]) | IC50 (NCI-H82) | IC50 (A673) | IC50 (TC-32 [9]) | IC50 (IGROV-1) | IC50 (CAKI-1) | IC50 (HCT-116 [14]) | IC50 [15] | IC50 (MCF7) | also measured |
| --- | --- | --- | --- | --- | --- | --- | --- | --- | --- | --- | --- | --- | --- | --- | --- |
| Cc1ccc(C(=O)N[C@@H](C(=O)Nc2ccc3c(c2)/C(=C/c2cnc[nH]2)C(=O)N3)c2ccccc2)c(=O)n1Cc1ccc(F)c(F)c1 | 4.7 µM | > 30 µM | > 30 µM | > 30 µM | > 30 µM | 3 µM | > 30 µM | > 30 µM | > 30 µM | > 30 µM | > 30 µM | > 30 µM | > 30 µM | > 30 µM | inhibition [2]: < 30%; inhibition [3]: < 30%; Activity (HCT-116 [4]): Dose-Dependent Effect; inhibition [5]: < 30%; inhibition at 10 µM [6]: 56%; Activity (TC-71 [7]): Dose-Dependent Effect; Activity (HEK293): < 25%; inhibition [10]: < 30%; Emax at 30 µM (SK-N-MC [11]): 83%; inhibition [12]: < 20%; Activity [13]: < 25%; inhibition [16]: < 30%; inhibition [17]: < 30% |
| O=C(O)[C@]1(Cc2cccc(Nc3nccs3)n2)CC[C@@H](Oc2cccc(Cl)c2F)CC1 [MK-5108] | 0.6 µM | > 30 µM | > 30 µM | > 30 µM | > 30 µM | > 30 µM | > 30 µM | > 30 µM | 5.6 µM | > 30 µM | > 30 µM | 16.3 µM | 1.6 µM | > 30 µM | Emax 6647: 82%; Emax at 30 µM (HCT-116 [18]): 40%; Emax at 30 µM (TC-32 [19]): -59%; Emax (TC-71 [20]): 70% |
